The record followed here is patent publication US11339178B2, “Inhibitors of microbial beta-glucuronidase enzymes and uses thereof” (The University of North Carolina at Chapel Hill, priority 2016, dated 2022).

The target in test [1] is S. agalactiae (SaGUS) β-Glucuronidase (Streptococcus agalactiae serotype V, UniProt Q8E0N2). Kind of test: biochemical.
Test [2] deals with C. perfringens (CpGUS) β-Glucuronidase (Clostridium perfringens, UniProt Q8XP19). Kind of test: biochemical.
The target of test [3] is E. coli (EcGUS) β-Glucuronidase (Escherichia coli, UniProt P05804). The test is described as follows: In vitro GUS inhibition, PNPG cleavage by purified E. coli GUS. The test is classed as biochemical. The following applies: PNPG substrate, 37° C., 2 hours; NI = no inhibition. The method, then:
To assess GUS inhibition, cleavage of p-nitrophenyl-β-D-glucuronide (PNPG) by purified E. coli GUS in the presence of inhibitor was measured. The reaction was performed in 96-well clear-bottom plates at a volume of 50 μL. Each reaction contained 5 μL of 100 nM E. coli GUS, 5 μL of inhibitor at various concentrations, 10 μL of 250 mM HEPES and 250 mM NaCl assay buffer, and 30 μL of 1.5 mM PNPG. The reaction was initiated by addition of PNPG and incubated at 37° C. for 2 hours. End point absorbance values at 410 nm were measured using a PHERAstar Plus microplate reader. The resulting data were fit with a four-parameter logistic log function in SigmaPlot 13.0 to determine IC50 values. IC50 was defined as the concentration of inhibitor that yields a 50% reduction in product formation at equilibrium.

Chain of S. agalactiae (SaGUS) β-Glucuronidase (Q8E0N2 whole entry): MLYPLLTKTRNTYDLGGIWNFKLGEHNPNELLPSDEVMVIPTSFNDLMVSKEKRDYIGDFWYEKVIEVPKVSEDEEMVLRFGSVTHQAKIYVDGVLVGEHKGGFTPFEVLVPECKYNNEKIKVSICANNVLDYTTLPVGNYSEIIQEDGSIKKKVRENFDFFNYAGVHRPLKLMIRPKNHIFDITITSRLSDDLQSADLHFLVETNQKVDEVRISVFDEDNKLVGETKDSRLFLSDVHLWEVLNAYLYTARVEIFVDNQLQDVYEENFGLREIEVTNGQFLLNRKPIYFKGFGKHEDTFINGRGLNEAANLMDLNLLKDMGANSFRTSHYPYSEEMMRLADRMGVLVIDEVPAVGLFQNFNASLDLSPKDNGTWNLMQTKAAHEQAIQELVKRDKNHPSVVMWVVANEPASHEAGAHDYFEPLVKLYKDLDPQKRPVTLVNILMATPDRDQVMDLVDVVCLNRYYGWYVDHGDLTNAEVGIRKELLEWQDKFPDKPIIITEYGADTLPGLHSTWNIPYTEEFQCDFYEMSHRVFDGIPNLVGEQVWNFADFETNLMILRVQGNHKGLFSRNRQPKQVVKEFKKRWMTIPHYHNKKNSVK
Chain of E. coli (EcGUS) β-Glucuronidase (P05804 whole entry): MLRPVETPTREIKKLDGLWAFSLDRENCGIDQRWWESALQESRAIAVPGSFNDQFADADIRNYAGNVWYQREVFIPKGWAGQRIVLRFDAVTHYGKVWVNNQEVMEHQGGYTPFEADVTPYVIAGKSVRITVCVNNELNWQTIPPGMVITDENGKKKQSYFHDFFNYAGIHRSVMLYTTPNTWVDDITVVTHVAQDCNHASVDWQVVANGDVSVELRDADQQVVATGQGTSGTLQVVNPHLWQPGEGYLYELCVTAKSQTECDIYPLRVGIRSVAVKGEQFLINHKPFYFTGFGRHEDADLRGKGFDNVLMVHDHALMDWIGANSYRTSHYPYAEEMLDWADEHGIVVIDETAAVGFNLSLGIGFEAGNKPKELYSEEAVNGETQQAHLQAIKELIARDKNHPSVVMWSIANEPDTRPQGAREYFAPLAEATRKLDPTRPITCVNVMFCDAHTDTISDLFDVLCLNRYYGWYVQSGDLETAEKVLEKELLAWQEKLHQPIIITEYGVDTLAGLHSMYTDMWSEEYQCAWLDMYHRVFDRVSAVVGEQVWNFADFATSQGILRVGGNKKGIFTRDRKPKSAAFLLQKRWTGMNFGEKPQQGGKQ
Chain of C. perfringens (CpGUS) β-Glucuronidase (Q8XP19 whole entry, looked up): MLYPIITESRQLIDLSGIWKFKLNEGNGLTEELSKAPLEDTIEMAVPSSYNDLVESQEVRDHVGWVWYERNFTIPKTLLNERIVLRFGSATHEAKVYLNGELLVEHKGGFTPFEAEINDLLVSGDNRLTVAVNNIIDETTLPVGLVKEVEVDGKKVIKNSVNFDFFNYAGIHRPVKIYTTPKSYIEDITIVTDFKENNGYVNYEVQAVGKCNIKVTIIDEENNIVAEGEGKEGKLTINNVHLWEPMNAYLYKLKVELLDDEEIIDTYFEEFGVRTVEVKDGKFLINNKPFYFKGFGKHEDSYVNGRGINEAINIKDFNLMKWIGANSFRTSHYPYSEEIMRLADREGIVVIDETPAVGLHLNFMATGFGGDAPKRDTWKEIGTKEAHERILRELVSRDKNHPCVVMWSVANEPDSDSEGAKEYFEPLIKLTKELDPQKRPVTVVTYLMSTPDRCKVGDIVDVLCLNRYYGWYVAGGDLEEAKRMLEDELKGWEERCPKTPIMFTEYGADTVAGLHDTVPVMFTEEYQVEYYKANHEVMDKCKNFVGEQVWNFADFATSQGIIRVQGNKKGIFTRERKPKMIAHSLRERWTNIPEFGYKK

As usually defined, the IC50 is the concentration needed to halve the response being measured. Low values mean greater potency, high ones weaker potency. Regarding `C1CCc2c(c(N3CCOCC3)nc3sc4c(NC5CCNCC5)nnnc4c23)C1` [Compound 4], the concentration for half-maximal inhibition (IC50) is 70000 ± 20000 nM in test [1] and 5700 ± 600 nM in test [2].
On to `CNc1nc(N2CCNCC2)c2sc3nc(N(C)C)ccc3c2n1` [Compound 28], for which the IC50 came to 500 ± 200 nM in test [1] and 280 ± 50 nM in test [2].
Take `CNc1nc2sc3c(N4CCNCC4)nnnc3c2c2c1CCCC2` [Compound 16]: the IC50 was 70 ± 10 nM in test [3], 39 ± 8 nM in test [1] and 180 ± 10 nM in test [2].
Take `C1CCC(Nc2nc3sc4c(N5CCNCC5)nnnc4c3c3c2CCCC3)CC1` [Compound 14]: the IC50 in test [1] was 320 ± 50 nM; in test [2], 480 ± 10 nM.
Consider `CNc1ccc2c(n1)sc1c(N3CCNCC3)nc(NC)nc12` [Compound 29], for which the IC50 in test [1] turned out to be 550 ± 70 nM; in test [2], 660 ± 90 nM.
In the same order, the values of `CN(C)c1nc2sc3c(N4CCNCC4)nnnc3c2c2c1CCCC2` [Compound 15] are 62 ± 5 nM and 180 ± 6 nM.
In the same order, the values of `c1ccc(CNc2nc3sc4c(N5CCNCC5)nnnc4c3c3c2CCCC3)cc1` [Compound 17] are 90 ± 20 nM and 290 ± 10 nM.
The matching figures for `C1CCN(c2nc3sc4c(N5CCNCC5)nnnc4c3c3c2CCCC3)CC1` [Compound 13]: 180 ± 20 nM and 350 ± 20 nM.
For `c1cc2c(nc1N1CCOCC1)sc1c(N3CCNCC3)nnnc12` [Compound 19], the half-maximal inhibitory concentration (IC50) came out at 640 ± 60 nM in test [1] and 220 ± 20 nM in test [2].
On to `CNc1nc(N2CCNCC2)c2sc3nc(-c4ccccc4)ccc3c2n1` [Compound 24], for which the IC50 was 480 ± 30 nM in test [1] and 450 ± 10 nM in test [2].
The matching figures for `CNc1nc(N2CCNCC2)c2sc3ncccc3c2n1` [Compound 31]: 2000 ± 1500 nM and 900 ± 300 nM.
With `C[N+]1(C)CCN(c2nnnc3c2sc2nc(N4CCOCC4)c4c(c23)CCCC4)CC1` [Compound 52], the IC50 in test [3] was determined as 6000 ± 100 nM.
As to `CN(C)c1nc(N2CCNCC2)c2sc3nc(-c4ccccc4)ccc3c2n1` [Compound 25], the results for the IC50 in test [1] and in test [2] were 270 ± 30 nM and 160 ± 20 nM, respectively.
`CC1(C)CCc2c(N3CCOCC3)nc3sc4c(N5CCNCC5)nnnc4c3c2C1` [Compound 49] returned an IC50 in test [3] of 620 ± 50 nM.
For the compound `C1CCc2c(c(N3CCOCC3)nc3sc4c(N5CC6CC5CN6)nnnc4c23)C1` (stereo not drawn) [Compound 5], the IC50 in test [1] amounted to 2700 ± 500 nM; in test [2], 4500 ± 300 nM.
With `C1CCc2c(c(N3CCNCC3)nc3sc4c(N5CCNCC5)nnnc4c23)C1` [Compound 12], the figures for the IC50 in test [1] and in test [2] were 63 ± 6 nM and 120 ± 20 nM, respectively.
In the case of `C1CCc2c(c(N3CCOCC3)nc3sc4c(N5CCCNCC5)nnnc4c23)C1` [Compound 8], the IC50 in test [1] amounted to 5000 ± 1000 nM; in test [2], 13700 ± 600 nM.
Turning to `C[C@H]1CN(c2nnnc3c2sc2nc(N4CCOCC4)c4c(c23)CCCC4)CCN1` [Compound 7], the figures for the half-maximal inhibitory concentration (IC50) in test [1] and in test [2] were 550 ± 60 nM and 4200 ± 300 nM, respectively.
The compound `c1cnc2sc3c(N4CCNCC4)nnnc3c2c1` [Compound 46] returned an IC50 in test [3] of 1400 ± 40 nM.
With `C1CCc2c(c(N3CCOCC3)nc3sc4c(N5CCNCC5)nnnc4c23)C1` [Inh9, reference compound], the figures for the IC50 in test [1] and in test [2] were 117 nM and 154 nM, respectively.
In the same order, the values of `c1ccc(-c2ccc3c(n2)sc2c(N4CCNCC4)ncnc23)cc1` [Compound 23] are 550 ± 70 nM and 440 ± 40 nM.
In the same order, the values of `c1cnc2sc3c(N4CCNCC4)ncnc3c2c1` [Compound 30] are 3000 ± 2000 nM and 577 ± 9 nM.
For the compound `CN(C)c1ccc2c(n1)sc1c(N3CCNCC3)nnnc12` [Compound 27], the IC50 in test [1] is 1000 ± 200 nM; in test [2], 220 ± 20 nM.
Compound `Fc1ccc(CNc2nc3sc4c(N5CCNCC5)nnnc4c3c3c2CCCC3)cc1` [Compound 48] came in with an IC50 in test [3] of 208 ± 3 nM.
In the case of `c1ccc(-c2ccc3c(n2)sc2c(N4CCNCC4)nnnc23)cc1` [Compound 22], the IC50 came to 700 ± 100 nM in test [1] and 230 ± 30 nM in test [2].
In test [3], `COc1nc(N2CCNCC2)c2sc3nc(-c4ccccc4)ccc3c2n1` [Compound 45] yielded a 50% inhibitory concentration (IC50) of 140 ± 8 nM.
Regarding `CNc1nc(N2CCNCC2)c2sc3nc(N4CCOCC4)ccc3c2n1` [Compound 21], the half-maximal inhibitory concentration (IC50) was found to be 340 ± 50 nM in test [1] and 100 ± 10 nM in test [2].
For `Clc1nc(N2CCNCC2)c2sc3nc(N4CCOCC4)c4c(c3c2n1)CCCC4` [Compound 51], in test [3], the 50% inhibitory concentration (IC50) was 900 ± 60 nM.
The same measure, in the same setting: under `CC1CN(c2nnnc3c2sc2nc(N4CCOCC4)c4c(c23)CCCC4)CCN1` (stereo not drawn) [Compound 44] stands 5400 ± 600 nM.
Take `OCCNc1nc(N2CCNCC2)c2sc3nc(-c4ccccc4)ccc3c2n1` [Compound 26]: the values for the half-inhibitory concentration (IC50) in test [1] and in test [2] were 490 ± 60 nM and 410 ± 40 nM, respectively.
For `NN1CCN(c2nnnc3c2sc2nc(N4CCOCC4)c4c(c23)CCCC4)CC1` [Compound 3], the values for the IC50 in test [3], in test [1] and in test [2] were 5000 ± 500 nM, 6700 ± 400 nM and 4500 ± 200 nM, respectively.
Turning to `C[C@@H]1CN(c2nnnc3c2sc2nc(N4CCOCC4)c4c(c23)CCCC4)CCN1` [Compound 6], the IC50 in test [1] was 550 ± 70 nM; in test [2] it was 3900 ± 100 nM.
As for `CN(C)c1nc2sc3c(NCCN)nnnc3c2c2c1CCCC2` [Compound 50], the midpoint of inhibition in test [3], the IC50, lay at 12000 ± 2000 nM.
On to `c1nc(N2CCNCC2)c2sc3nc(N4CCOCC4)ccc3c2n1` [Compound 20], for which the half-maximal inhibitory concentration (IC50) in test [3] is 130 ± 10 nM; in test [1], 690 ± 30 nM; in test [2], 53 ± 4 nM.
On to `CN1CCN(c2nnnc3c2sc2nc(N4CCOCC4)c4c(c23)CCCC4)CC1` [Compound 2], for which the figures for the half-inhibitory concentration (IC50) in test [1] and in test [2] were 22000 ± 7000 nM and 14300 ± 300 nM, respectively.
Consider `Clc1nc(N2CCNCC2)c2sc3nc(N4CCOCC4)ccc3c2n1` [Compound 47], for which, in test [3], half-maximal inhibition (IC50) was put at 30 ± 3 nM.
